From ChEMBL document CHEMBL3608206, “Phenolic 4-hydroxy and 3,5-dihydroxy derivatives of 3-phenoxyquinoxalin-2(1H)-one as potent aldose reductase inhibitors with antioxidant activity” (Bioorg Med Chem Lett, 2015)

What was measured:
[1] = Antioxidant activity assessed as DPPH radical scavenging activity at 50 uM after 240 mins by spectrophotometric analysis relative to control; assay type: physicochemical; conditions: 4 h
[2] = biological target: Aldo-keto reductase family 1 member B1 (Rattus norvegicus, UniProt P07943); assay: Inhibition of Wistar rat ALR2 using D,L-glyceraldehyde as substrate assessed as oxidation of NADPH preincubated for 10 mins followed by substrate addition measured for 4 mins by spectrophotometric analysis
Brain [3] = assay: Antioxidant activity in rat brain assessed as inhibition of MDA production at 10 uM by TBARS assay relative to control; assay type: functional
Brain [4] = assay: Antioxidant activity in rat brain assessed as inhibition of MDA production at 100 uM by TBARS assay relative to control; assay type: functional
[5] = Antioxidant activity assessed as DPPH radical scavenging activity at 100 uM after 240 mins by spectrophotometric analysis relative to control; assay type: physicochemical; conditions: 4 h
[6] = biological target: Aldo-keto reductase family 1 member B1 (Rattus norvegicus) (UniProt P07943); assay: Inhibition of Wistar rat ALR2 using D,L-glyceraldehyde as substrate assessed as oxidation of NADPH at 10 uM preincubated for 10 mins followed by substrate addition measured for 4 mins by spectrophotometric analysis relative to control

Which Activity [1] does the source give for O=C(O)Cn1c(=O)c(Oc2cc(O)cc(O)c2)nc2cc(Cl)ccc21 here?
Its Activity is 34.5%.

And the IC50 [2]?
Its IC50 is 982 nM.

What about the inhibition at 10 µM (Brain [3]) of the same molecule?
The inhibition at 10 µM was 8.1%.

And the inhibition at 100 µM (Brain [4])?
Its inhibition at 100 µM is 24.5%.

And the Activity [5]?
Its Activity is 56.5%.

Which IC50 [2] does the source give for O=C(O)Cn1c(=O)c(Oc2cc(O)cc(O)c2)nc2cc(F)ccc21 here?
The IC50 was 130 nM.

And the inhibition at 100 µM (Brain [4])?
Its inhibition at 100 µM is 15.5%.

And the Activity [5]?
The Activity was 25.4%.

With O=C(O)Cn1c(=O)c(Oc2ccc(O)cc2)nc2ccccc21 as the molecule, how does the IC50 [2] read?
The IC50 was 374 nM.

And the inhibition at 100 µM (Brain [4])?
The inhibition at 100 µM was 12.3%.

What about the Activity [5] of the same molecule?
The Activity was 21.3%.

Which Activity [1] does the source give for O=C(O)Cn1c(=O)c(Oc2cc(O)cc(O)c2)nc2ccccc21 here?
Its Activity is 46.5%.

What about the IC50 [2] of the same molecule?
The IC50 was 940 nM.

What about the inhibition at 10 µM (Brain [3]) of the same molecule?
The inhibition at 10 µM was 5.7%.

What about the inhibition at 100 µM (Brain [4]) of the same molecule?
The inhibition at 100 µM was 34.5%.

And the Activity [5]?
Its Activity is 67.4%.

For O=C(O)Cn1c(=O)c(Oc2ccc(O)cc2)nc2cc(F)ccc21, which IC50 [2] is on record?
The IC50 was 19.6 nM.

What about the inhibition at 100 µM (Brain [4]) of the same molecule?
Its inhibition at 100 µM is 14.3%.

And the Activity [5]?
Its Activity is 23.7%.

With O=C(O)Cn1c(=O)c(Oc2cc(O)cc(O)c2)nc2ccc(F)cc21 as the molecule, how does the Activity [1] read?
Its Activity is 29.3%.

What about the inhibition at 10 µM (Brain [3]) of the same molecule?
The inhibition at 10 µM was 9.3%.

And the inhibition at 100 µM (Brain [4])?
Its inhibition at 100 µM is 20.3%.

And the Activity [5]?
Its Activity is 38.2%.

What about the inhibition [6] of the same molecule?
The inhibition was 34%.

With O=C(O)Cn1c(=O)c(Oc2cc(O)cc(O)c2)nc2ccc(Cl)cc21 as the molecule, how does the Activity [1] read?
Its Activity is 83.7%.

What about the IC50 [2] of the same molecule?
The IC50 was 566 nM.

And the inhibition at 10 µM (Brain [3])?
Its inhibition at 10 µM is 26.6%.

What about the inhibition at 100 µM (Brain [4]) of the same molecule?
Its inhibition at 100 µM is 55.3%.

And the Activity [5]?
The Activity was 91.3%.

Which results are given for Cc1c(C)c2c(c(C)c1O)CCC(C)(C(=O)O)O2 (stereo not drawn) [TROLOX]?
Activity [1]: 93.3%; inhibition at 10 µM (Brain [3]): 90.1%; inhibition at 100 µM (Brain [4]): 71.3%; Activity [5]: 96.7%

Which Activity [1] does the source give for O=C(O)Cn1c(=O)c(Oc2ccc(O)cc2)nc2ccc(Cl)cc21 here?
Its Activity is 47.3%.

And the IC50 [2]?
Its IC50 is 179 nM.

And the inhibition at 10 µM (Brain [3])?
The inhibition at 10 µM was 10.1%.

And the inhibition at 100 µM (Brain [4])?
The inhibition at 100 µM was 49.4%.

And the Activity [5]?
The Activity was 84.8%.
